Data: article PMC5039424 (2016)

Test system: yeast tRNA^Phe (RNA, tRNA) GCGGAUUUAGCUCAGUUGGGAGAGCGCCAGACUGAAGAUCUGGAGGUCCUGUGUUCGAUCCACAGAAUUCGCACCA
Assay: inhibition of lead(II)-induced cleavage, gel
Settings: 10 mM Mg2+, 1 mM NH4+, 0.5 mM Pb2+; 50% inhibition of Pb2+ cleavage; 50 mM Tris-HCl pH 7.5; RNA 2.4 μM

SMILES | Ki [µM]
CN(C)c1ccc2cc3ccc(N(C)C)cc3[o+]c2c1 | 166 ± 42
CN(C)c1ccc2nc3ccc(N)cc3[s+]c2c1 | 52 ± 8.3
CNc1ccc2nc3ccc(=[N+](C)C)cc-3sc2c1 | 58 ± 28
CN(C)c1ccc2nc3ccc(N(C)C)cc3[s+]c2c1 | 98 ± 20
